Usually bioavailability stands for the share of a dose that reaches the circulation, judged against a reference dose that is usually intravenous. A higher bioavailability goes with much systemic uptake. For orientation: half-life means the time needed for the level to fall by half in the phase considered. Low readings indicate rapid decline, high ones slow decline. As a reminder, the IC50 is the concentration that gives 50% inhibition. Higher therefore signals lower potency.

“And” between values parts separate entries of the source, which are not always exact repeats. Equal values may be shown once. Some results are limits rather than exact numbers.

Series [1] in a line: (§1) Oral bioavailability in dog. It is filed as ADME, organism-based, Canis lupus familiaris. Particulars: in vivo.
The nature of series [2]: Half life in dog was determined. The class given is ADME, organism-based, Canis lupus familiaris. To be noted: in vivo.
Series [3] can be described thus: Plasma clearance in dog was determined. To be noted: read-out: Clp. The class given is ADME, organism-based, Canis lupus familiaris.
Series [4] has as its target T1, Gonadotropin-releasing hormone receptor (Homo sapiens, UniProt P30968).
T1 sequence (P30968 whole entry): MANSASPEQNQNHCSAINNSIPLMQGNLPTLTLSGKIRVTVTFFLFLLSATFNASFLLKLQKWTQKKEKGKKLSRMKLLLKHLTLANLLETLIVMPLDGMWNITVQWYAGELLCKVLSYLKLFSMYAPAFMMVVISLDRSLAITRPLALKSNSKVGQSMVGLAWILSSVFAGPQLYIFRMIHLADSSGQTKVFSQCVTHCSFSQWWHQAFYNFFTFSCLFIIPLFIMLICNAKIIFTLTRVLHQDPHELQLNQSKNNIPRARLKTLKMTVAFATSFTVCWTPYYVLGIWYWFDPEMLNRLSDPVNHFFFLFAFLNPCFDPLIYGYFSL
Briefly: Inhibition of [125I]buserelin binding to human pituitary gonadotropin-releasing hormone receptor.

Series [5] has as its target T1, Gonadotropin-releasing hormone receptor. Briefly: Inhibition of gonadotropin-releasing hormone receptor-stimulated [3H]inositol phosphate hydrolysis. It is filed as functional.
The subject of series [6] is Canis familiaris. The series is described as §1. It is filed as ADME, organism-based, Canis lupus familiaris. To be noted: in vivo.
Series [7] concerns the target T2, Cytochrome P450 3A4 (Homo sapiens, UniProt P08684). Nature of the series: Inhibition of cytochrome P450 3A4 enzyme; Range 1-2 uM. It is filed as ADME.
Series [8] has as its system Canis familiaris. Nature of the series: Compound was tested for the oral bioavailability in dog; No availability. Particulars: in vivo. The class given is ADME, organism-based, Canis lupus familiaris.
For series [9], the target named is T2, Cytochrome P450 3A4. Nature of the series: Inhibition of cytochrome P450 3A4 enzyme.
The target in series [10] is T1, Gonadotropin-releasing hormone receptor. Nature of the series: Compound was evaluated for the inhibition of Gonadotropin-releasing hormone receptor-stimulated [3H]inositol phosphate hydrolysis using functional assay.

T2 sequence (P08684 whole entry): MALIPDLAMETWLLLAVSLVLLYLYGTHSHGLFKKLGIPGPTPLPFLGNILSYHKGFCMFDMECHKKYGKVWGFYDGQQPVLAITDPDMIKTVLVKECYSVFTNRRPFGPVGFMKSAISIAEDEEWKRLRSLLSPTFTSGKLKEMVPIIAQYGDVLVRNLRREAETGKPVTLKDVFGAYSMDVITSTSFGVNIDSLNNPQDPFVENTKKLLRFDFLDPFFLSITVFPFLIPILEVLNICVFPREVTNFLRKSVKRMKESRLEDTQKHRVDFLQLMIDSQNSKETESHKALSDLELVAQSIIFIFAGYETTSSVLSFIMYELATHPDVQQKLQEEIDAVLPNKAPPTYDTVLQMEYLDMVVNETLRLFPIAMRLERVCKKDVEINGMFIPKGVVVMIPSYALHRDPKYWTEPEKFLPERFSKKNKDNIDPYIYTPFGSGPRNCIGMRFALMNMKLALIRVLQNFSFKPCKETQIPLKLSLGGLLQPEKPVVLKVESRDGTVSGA

In turn, `Cc1cc(C)cc(-c2[nH]c3ccc(C(C)(C)C(=O)N4CC5CCC4CC5)cc3c2[C@H](C)CNCCc2ccc3nn[nH]c3c2)c1` came in with a bioavailability in series [1] of 20%. For the same compound, the half-life in series [2] is 432 min. In addition, the clearance in series [3] was 5 mL/min/kg. Moreover, the IC50 in [4] came to 0.3 nM; in series [5] it was 2.5 nM.
The corresponding values for `Cc1cc(C)cc(-c2[nH]c3ccc(C(C)(C)C(=O)N4C5CCC4CC5)cc3c2[C@H](C)CNCCc2ccc3[nH]nnc3c2)c1` are 37%, 162 min, 37 mL/min/kg, 0.6 nM and 2 nM.
As to `Cc1cc(C)cc(-c2[nH]c3ccc(C(C)(C)C(=O)N4C5CCC4CC5)cc3c2[C@H](C)CNCCCCc2cncc3ccccc23)c1`, the IC50 came out at 2.1 nM in series [4] and 10.2 nM in series [5].
In the case of `Cc1cc(C)cc(-c2[nH]c3ccc(C(C)(C)C(=O)N4CC5CCC4CC5)cc3c2[C@H](C)CNCc2ccc3nc[nH]c3c2)c1`, the results for the IC50 in series [4] and in [5] were 16.5 nM and 43.9 nM, respectively.
Consider `Cc1cc(C)cc(-c2[nH]c3ccc(C(C)(C)C(=O)N4C5CCC4CC5)cc3c2[C@H](C)CNCCCc2cnc3nccnc3c2)c1`, for which the results for the IC50 in [4] and in series [5] were 0.8 nM and 10.9 nM, respectively.
The corresponding values for `Cc1cc(C)cc(-c2[nH]c3ccc(C(C)(C)C(=O)N4C5CCC4CC5)cc3c2[C@H](C)CNCCCc2cncc3ccccc23)c1` are 2.1 nM and 7.5 nM.
The corresponding values for `Cc1cc(C)cc(-c2[nH]c3ccc(C(C)(C)C(=O)N4C5CCC4CC5)cc3c2[C@H](C)CNCCc2c[nH]c3ncnc-3c2)c1` are 0.4 nM and 2.5 nM.
The like results for `Cc1cc(C)cc(-c2[nH]c3ccc(C(C)(C)C(=O)N4C5CCC4CC5)cc3c2[C@H](C)CNCCCc2ccnc3nc(C)ccc23)c1` were, in that order, 1.1 nM and 16.2 nM.
Regarding `Cc1cc(C)cc(-c2[nH]c3ccc(C(C)(C)C(=O)N4C5CCC4CC5)cc3c2[C@H](C)CNCCCCc2ccncc2)c1`, in the series with Canis familiaris [6], the F was 23% and 11%. This compound also showed a half-life in series [2] of 570 min. Besides, the clearance in series [3] was found to be 26.5 mL/min/kg.
Consider `Cc1cc(C)cc(-c2[nH]c3ccc(C(C)(C)C(=O)N4C5CCC4CC5)cc3c2[C@H](C)CNCCCCc2ccc3ncccc3c2)c1`, for which the IC50 came out at 1.1 nM in series [4] and 11.5 nM in series [5].
With `Cc1cc(C)cc(-c2[nH]c3ccc(C(C)(C)C(=O)N4CC5CCC4CC5)cc3c2[C@H](C)CNCCc2ccc3nsnc3c2)c1`, the IC50 at Cytochrome P450 3A4 [7] is 1000 nM; in series [4] it was 0.5 nM; in series [5] it was 11.4 nM.
As for `Cc1cc(C)cc(-c2[nH]c3ccc(C(C)(C)C(=O)N4CC5CCC4CC5)cc3c2[C@H](C)CNCCc2ccc3[nH]ncc3c2)c1`, the IC50 turned out to be 1.1 nM in [4] and 1.5 nM in [5].
The corresponding values for `Cc1cc(C)cc(-c2[nH]c3ccc(C(C)(C)C(=O)N4CC5CCC4CC5)cc3c2[C@H](C)CNCCc2ccc3ncoc3c2)c1` are 0.6 nM and 3.9 nM.
In [1], `Cc1cc(C)cc(-c2[nH]c3ccc(C(C)(C)C(=O)N4C5CCC4CC5)cc3c2[C@H](C)CNCCCCc2cccc3cnccc23)c1` gave a bioavailability of 4%. In addition, the half-life in series [2] is 60 min. Moreover, the clearance in series [3] was found to be 49.2 mL/min/kg. Further, the results for the IC50 in series [4] and in series [5] were 1.5 nM and 6.8 nM, respectively.
For the compound `Cc1cc(C)cc(-c2[nH]c3ccc(C(C)(C)C(=O)N4C5CCC4CC5)cc3c2[C@H](C)CNCc2cccc3ncccc23)c1` (stereo in doubt; 27a), the IC50 in series [4] turned out to be 27.5 nM; in series [5], 420 nM.
`Cc1cc(C)cc(-c2[nH]c3ccc(C(C)(C)C(=O)N4C5CCC4CC5)cc3c2[C@H](C)CNCCc2cccc3cnccc23)c1`: the bioavailability in [1] worked out at 10%. This compound gave a half-life in series [2] of 114 min. Further, the values for the IC50 (at Cytochrome P450 3A4 [7]; in series [4]; in series [5]) were 1000 nM, 0.6 nM and 34.7 nM, respectively. The clearance in series [3] is 5.8 mL/min/kg.
Regarding `Cc1cc(C)cc(-c2[nH]c3ccc(C(C)(C)C(=O)N4C5CCC4CC5)cc3c2[C@H](C)CNCCc2ccc3ocnc3c2)c1`, the IC50 in [4] was found to be 0.3 nM; in [5], 9 nM.
The corresponding values for `Cc1cc(C)cc(-c2[nH]c3ccc(C(C)(C)C(=O)N4C5CCC4CC5)cc3c2[C@H](C)CNCCc2ccc3nc[nH]c3c2)c1` are 0.4 nM and 2.6 nM.
The like results for `Cc1cc(C)cc(-c2[nH]c3ccc(C(C)(C)C(=O)N4C5CCC4CC5)cc3c2[C@H](C)CNCCCCc2ccnc3nc(C)ccc23)c1` were, in that order, 0.6 nM and 8.4 nM.
The corresponding values for `Cc1cc(C)cc(-c2[nH]c3ccc(C(C)(C)C(=O)N4C5CCC4CC5)cc3c2[C@H](C)CNCCCc2ccc3cnccc3c2)c1` are 0.7 nM and 4.6 nM.
Regarding `Cc1cc(C)cc(-c2[nH]c3ccc(C(C)(C)C(=O)N4C5CCC4CC5)cc3c2[C@H](C)CNCCCc2cccc3cnccc23)c1`, the results for the IC50 in series [4] and in [5] were 0.9 nM and 5 nM, respectively.
In the case of `Cc1cc(C)cc(-c2[nH]c3ccc(C(C)(C)C(=O)N4CC5CCC4CC5)cc3c2[C@H](C)CNCCc2ccc3nc(C(=O)O)[nH]c3c2)c1`, the F result with Canis familiaris [8] is reported as “Not Active”. Further, the clearance in series [3] stood at 24.6 mL/min/kg. Besides, the IC50 is 0.4 nM in series [4] and 6.5 nM in series [5].
In the case of `Cc1cc(C)cc(-c2[nH]c3ccc(C(C)(C)C(=O)N4CC5CCC4CC5)cc3c2[C@H](C)CNCCc2ccc3[nH]c(C(F)(F)F)nc3c2)c1`, the values for the IC50 (against Cytochrome P450 3A4 [9]; in [4]; in [5]) were greater than 10 µM, 0.9 nM and 101 nM, respectively.
Take `Cc1cc(C)cc(-c2[nH]c3ccc(C(C)(C)C(=O)N4C5CCC4CC5)cc3c2[C@H](C)CNCc2cccc3ncccc23)c1` (stereo in doubt; 27b): the IC50 in [4] is 15.3 nM; in series [5], 315 nM.
As for `Cc1cc(C)cc(-c2[nH]c3ccc(C(C)(C)C(=O)N4C5CCC4CC5)cc3c2[C@H](C)CNCCc2ccc3ncoc3c2)c1`, the figures for the IC50 (against Cytochrome P450 3A4 [7]; in series [4]; in series [5]) were 1000 nM, 0.4 nM and 2 nM, respectively.
`Cc1cc(C)cc(-c2[nH]c3ccc(C(C)(C)C(=O)N4C5CCC4CC5)cc3c2[C@H](C)CNCCCCc2cccc3ncccc23)c1`: the IC50 is 1.9 nM in [4] and 46.4 nM in [5].
On to `Cc1cc(C)cc(-c2[nH]c3ccc(C(C)(C)C(=O)N4C5CCC4CC5)cc3c2[C@H](C)CNCCCCc2cnc3nccnc3c2)c1`, for which the IC50 in series [4] worked out at 0.4 nM; in series [5] it was 7.9 nM.
The compound `Cc1cc(C)cc(-c2[nH]c3ccc(C(C)(C)C(=O)N4CC5CCC4CC5)cc3c2[C@H](C)CNCCc2ccc3[nH]c(=O)[nH]c3c2)c1` gave a bioavailability in series [1] of 5%. The IC50 came to 0.6 nM in [4] and 2 nM in series [10].
On to `Cc1cc(C)cc(-c2[nH]c3ccc(C(C)(C)C(=O)N4C5CCC4CC5)cc3c2[C@H](C)CNCCc2ccc3[nH]c(C)nc3c2)c1`, for which the values for the IC50 (at Cytochrome P450 3A4 [9]; in [4]; in series [5]) were 5 µM, 0.4 nM and 13 nM, respectively.
In the case of `Cc1cc(C)cc(-c2[nH]c3ccc(C(C)(C)C(=O)N4C5CCC4CC5)cc3c2[C@H](C)CNCCCc2ccc3ncccc3c2)c1`, the IC50 in series [4] is 3 nM; in series [5], 17.8 nM.
The corresponding values for `Cc1cc(C)cc(-c2[nH]c3ccc(C(C)(C)C(=O)N4CC5CCC4CC5)cc3c2[C@H](C)CNCCc2ccc3[nH]c(=O)[nH]c3c2F)c1` are 0.7 nM and 27.9 nM.
Consider `Cc1cc(C)cc(-c2[nH]c3ccc(C(C)(C)C(=O)N4C5CCC4CC5)cc3c2[C@H](C)CNCCCCc2cnc3nc[nH]c3c2)c1`, for which the values for the IC50 in [4] and in [5] were 0.4 nM and 4.6 nM, respectively.
Take `Cc1cc(C)cc(-c2[nH]c3ccc(C(C)(C)C(=O)N4CC5CCC4CC5)cc3c2[C@H](C)CNCCc2c[nH]c3ncnc-3c2)c1`: in series [1], the bioavailability worked out at 16%. Besides, the IC50 against Cytochrome P450 3A4 [9] is 4 µM; in series [4] it was 0.3 nM; in series [5], 4.5 nM.
The like results for `Cc1cc(C)cc(-c2[nH]c3ccc(C(C)(C)C(=O)N4CC5CCC4CC5)cc3c2[C@H](C)CNCCc2ccc3nc[nH]c3c2)c1` were, in that order, 63%, 0.1 µM, 0.3 nM and 4.5 nM.
Regarding `Cc1cc(C)cc(-c2[nH]c3ccc(C(C)(C)C(=O)N4C5CCC4CC5)cc3c2[C@H](C)CNCCCc2cccc3ncccc23)c1`, the values for the IC50 in series [4] and in series [5] were 2.4 nM and 131 nM, respectively.
The like results for `Cc1cc(C)cc(-c2[nH]c3ccc(C(C)(C)C(=O)N4CC5CCC4CC5)cc3c2[C@H](C)CNCCc2cnc3nn[nH]c3c2)c1` were, in that order, 0.6 nM and 2.8 nM.
On to `Cc1cc(C)cc(-c2[nH]c3ccc(C(C)(C)C(=O)N4C5CCC4CC5)cc3c2[C@H](C)CNCCCCc2ccc3cnccc3c2)c1`, for which the IC50 in [4] amounted to 3.6 nM; in series [5] it was 5.8 nM.
Consider `Cc1cc(C)cc(-c2[nH]c3ccc(C(C)(C)C(=O)N4CC5CCC4CC5)cc3c2[C@H](C)CNCCc2ccc3[nH]c(CO)nc3c2)c1`, for which the IC50 is 0.7 nM in [4] and 5 nM in series [5].
The corresponding values for `COC(=O)c1nc2ccc(CCNC[C@@H](C)c3c(-c4cc(C)cc(C)c4)[nH]c4ccc(C(C)(C)C(=O)N5CC6CCC5CC6)cc34)cc2[nH]1` are 0.3 nM and 7.6 nM.
